Laboratory results from patent US20250388607A1, “A BROMOTAG-BASED TOOLKIT FOR RAPID INDUCTION OF CHEMICALLY INDUCED PROXIMITY” (THE BOARD OF TRUSTEES OF THE LELAND STANFORD JUNIOR …, priority 2024, published 2025).
“Also recorded” adds a separate entry of the source.

Key:
FKBP12F36V and BromoTag = biological target: T1, FKBP12F36V and BromoTag (Homo sapiens, UniProt O60885+P62942, F37V/L387A); assay: NanoBiT assay, FKBP/BromoTag heterodimerization, tags expressed alone; format: cell-based; conditions: all LgBiT and SmBiT tag orientations; FIGS. 1A-1D; HEK293T
T1 construct: BRD4 BD2 L387A mutant tag; LgBiT or SmBiT (NanoBiT subunit); expressed in transfected cells; host or cells: HEK293T
Source text: (§1) FKBP/BromoTag NanoBiT-tagged construct cloning. FKBP12F36V and BromoTag sequences were cloned using Gibson assembly into pBiT1.1-C [TK/LgBiT], pBiT2.1-C [TK/SmBiT], pBiT1.1-N [TK/LgBiT], and pBiT2.1-N [TK/SmBiT] vectors included in the NanoBiT® PPI MCS Starter System kit (Promega #N2014). […] pBiT1.1 and pBiT2.1 vectors were linearized at EcoRI and NheI cut sites, inserts were amplified with PCR, and constructs were ligated using NEBuilder® HiFi DNA Assembly Master Mix.
NanoBiT assay. 15k HEK293T cells per well were plated in 92 ul DMEM+10% FBS in opaque 96-well plates and allowed to adhere overnight, approximately 18-24 hours. HEK293T cells were subsequently transfected with pBiT1.1 (LgBiT-tagged) or pBiT2.1 (SmBiT-tagged) FKBP12F36V and/or BromoTag vectors, using TransIT-LT1 transfection reagent (Mirus #MIR2300) and Opti-MEM (Gibco #31985062). After 24 hours, 25 ul Nano-Glo® Live Cell Reagent was added to each well to measure dimerization signal. Using a PHERAstar FSX, baseline luminescence was measured for five or six cycles (approximately eight to ten minutes). Test dimerizer compounds freshly diluted in DMEM+10% FBS were then manually spiked in and induced luminescence was measured continuously for up to two hours. […]

BromoTag = biological target: T2, BromoTag (Homo sapiens, UniProt O60885, L387A); assay: NanoBiT assay, BromoTag homodimerization, tag expressed alone; format: cell-based; conditions: all orientations of LgBiT and SmBiT tags; FIGS. 4A-4D and 5; high background
T2 construct: BRD4 BD2 L387A mutant tag; expressed in transfected cells; host or cells: HEK293T
Source text: as §1
NanoBiT assay. 15k HEK293T cells per well were plated in 92 ul DMEM+10% FBS in opaque 96-well plates and allowed to adhere overnight, approximately 18-24 hours. HEK293T cells were subsequently transfected with pBiT1.1 (LgBiT-tagged) or pBiT2.1 (SmBiT-tagged) FKBP12F36V and/or BromoTag vectors, using TransIT-LT1 transfection reagent (Mirus #MIR2300) and Opti-MEM (Gibco #31985062). After 24 hours, 25 ul Nano-Glo® Live Cell Reagent was added to each well to measure dimerization signal. Using a PHERAstar FSX, baseline luminescence was measured for five or six cycles (approximately eight to ten minutes). Test dimerizer compounds freshly diluted in DMEM+10% FBS were then manually spiked in and induced luminescence was measured continuously for up to two hours. All summary figures were generated with GraphPad Prism. Data for the NanoBit assay is provided in FIGS. 1A-1D, 2A-2B, 3A-3B, 4A-4D, 5, 6A-6B, 7, and 12A-12C.

T1 sequence (P62942 whole entry F37V, other chains not shown): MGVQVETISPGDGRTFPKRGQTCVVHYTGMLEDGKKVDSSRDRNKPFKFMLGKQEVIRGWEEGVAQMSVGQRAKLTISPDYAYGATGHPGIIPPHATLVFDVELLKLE

SMILES	max dimerization signal compared with FKBP12WT/FRB-rapamycin (sirolimus) control (FKBP12F36V and BromoTag)	max dimerization signal compared with DMSO (BromoTag)	max dimerization signal compared with FKBP12WT/FRB-rapamycin control (BromoTag)
CC[C@H](C(=O)N1CCCC[C@H]1C(=O)O[C@H](CCc1ccc(OC)c(OC)c1)c1cccc(OCC(=O)NCCCCCCNC(=O)[C@H](CC)[C@@H]2N=C(c3ccc(Cl)cc3)c3c(sc(C)c3C)-n3c(C)nnc32)c1)c1cc(OC)c(OC)c(OC)c1 [MMH-04-74, (R)-1-(3-(2-((6-((R)-2-((S)-4-(4-chlorophenyl)-2,3,9-trimethyl-6H-thieno[3,2-f][1,2,4]triazolo[4,3-a][1,4]diazepin-6-yl)butanamido)hexyl)amino)-2-oxoethoxy)phenyl)-3-(3,4-dimethoxyphenyl)propyl (S)-1-((S)-2-(3,4,5-trimethoxyphenyl)butanoyl)piperidine-2-carboxylate]	dramatically higher max dimerization signal		
CC[C@@H](C(=O)NCCCCCCNC(=O)[C@H](CC)[C@@H]1N=C(c2ccc(Cl)cc2)c2c(sc(C)c2C)-n2c(C)nnc21)[C@@H]1N=C(c2ccc(Cl)cc2)c2c(sc(C)c2C)-n2c(C)nnc21 [MMH-05-01-02, (2R,2′R)-N,N′-(hexane-1,6-diyl)bis(2-((S)-4-(4-chlorophenyl)-2,3,9-trimethyl-6H-thieno[3,2-f][1,2,4]triazolo[4,3-a][1,4]diazepin-6-yl)butanamide)]		improved max dimerization signal over DMSO; also recorded: in most NanoBiT tag orientations have improved signal over DMSO	significantly higher signal; also recorded: outperformed existing FKBP12WT/FRB-rapamycin heterodimerization system
CC[C@@H](C(=O)NCCOCCOCCNC(=O)[C@H](CC)[C@@H]1N=C(c2ccc(Cl)cc2)c2c(sc(C)c2C)-n2c(C)nnc21)[C@@H]1N=C(c2ccc(Cl)cc2)c2c(sc(C)c2C)-n2c(C)nnc21 [MMH-05-01-03, (2R,2′R)-N,N′-((ethane-1,2-diylbis(oxy))bis(ethane-2,1-diyl))bis(2-((S)-4-(4-chlorophenyl)-2,3,9-trimethyl-6H-thieno[3,2-f][1,2,4]triazolo[4,3-a][1,4]diazepin-6-yl)butanamide)]		improved max dimerization signal over DMSO; also recorded: in most NanoBiT tag orientations have improved signal over DMSO	significantly higher signal; also recorded: outperformed existing FKBP12WT/FRB-rapamycin heterodimerization system
